Measured values reported in article PMC8397425, “A Strategy to Conjugate Bioactive Fragments to Cytotoxic Diiron Bis(cyclopentadienyl) Complexes” (Organometallics, 2021).
Marks after values point to notes of the source that are not given here.

Columns and labels:
[1] = Stability in D2O/DMSO at 37 °C by 1H NMR; assay type: physicochemical; details: 24 h at 37 °C
Method: Conversely, [3–7]CF3SO3, containing either {Aryl–OCOAsp} or {Aryl-NHCOAsp} moieties, were stable under the same conditions. […] Complete conversion into the bis-hydroxide [8^2OH]^+ was achieved within 72 h. Similarly, [9,10]CF3SO3 undergo activation of the {C–Cl} bonds to give mixtures of the partially Cl/OH substituted species [9^OH]^+ and [10^OH]^+ and the fully substituted species [9^2OH]^+ and [10^2OH]^+.

[2] = tested on: natural double-stranded DNA from calf thymus; assay: Ethidium bromide (EB) exchange test with DNA; assay type: binding; details: NaCl 0.1 M, NaCac 0.01 M, T = 25 °C; complex 1.4–135 μM
Method: The ability of [4]CF3SO3 and [9]CF3SO3 to interact with natural DNA was studied using the ethidium bromide (EB) exchange test (Figure 6), with the concentration of the complexes beingin the 1.5–124 μM range for [4]CF3SO3 and 1.4–135 μM for [9]CF3SO3. Blank experiments were carried out with the two bioactive molecules and also with DMSO to check for solvent/dilution effects. […] However, EB exchange titrations are suitable to recognize fast noncovalent binding events, but not subsequent slow covalent binding. […]
Ethidium bromide (EB, ≥98.0%), bovine serum albumin (BSA, lyophilized powder, crystallized, ≥98.0%), and natural double-stranded DNA from calf thymus (DNA, lyophilized powder, Na^+ salt in the form of fibers) were purchased from Merck, while anhydrous guanosine 5′-monophosphate disodium salt (Na2[GMP], >98.0%) was purchased from TCI Chemicals. […] Molar concentrations of solutions of EB (CEB), BSA (CBSA), and DNA (CDNA) were determined by absorbance measurements (εEB^480 nm = 5700 M^–1 cm^–1; εBSA^278 nm = 44000 M^–1 cm^–1; εDNA^260 nm = 13200 M^–1 cm^–1 for a concentration expressed in base pairs). […] In EB/DNA exchange experiments, EB was added to DNA until the fluorescence emission at λex = 520 nm/λem = 595 nm (diagnostic wavelengths for the DNA-intercalated EB only) started to reach the plateau (CEB = 5.60 × 10^–5 M, CDNA = 1.15 × 10^–4 M). […]

[3] = target: T1, bovine serum albumin (BSA) (Bos taurus, UniProt P02769); assay: BSA fluorescence quenching titration; assay type: binding; details: pH 7.0 buffer, NaCl 0.1 M, NaCac 0.01 M; for Log K (binding constant, compound/BSA): 1:1 model, 25 °C
T1 construct: bovine serum albumin (BSA, lyophilized powder, crystallized, ≥98.0%); purchased Merck
T1 sequence (P02769 25-607): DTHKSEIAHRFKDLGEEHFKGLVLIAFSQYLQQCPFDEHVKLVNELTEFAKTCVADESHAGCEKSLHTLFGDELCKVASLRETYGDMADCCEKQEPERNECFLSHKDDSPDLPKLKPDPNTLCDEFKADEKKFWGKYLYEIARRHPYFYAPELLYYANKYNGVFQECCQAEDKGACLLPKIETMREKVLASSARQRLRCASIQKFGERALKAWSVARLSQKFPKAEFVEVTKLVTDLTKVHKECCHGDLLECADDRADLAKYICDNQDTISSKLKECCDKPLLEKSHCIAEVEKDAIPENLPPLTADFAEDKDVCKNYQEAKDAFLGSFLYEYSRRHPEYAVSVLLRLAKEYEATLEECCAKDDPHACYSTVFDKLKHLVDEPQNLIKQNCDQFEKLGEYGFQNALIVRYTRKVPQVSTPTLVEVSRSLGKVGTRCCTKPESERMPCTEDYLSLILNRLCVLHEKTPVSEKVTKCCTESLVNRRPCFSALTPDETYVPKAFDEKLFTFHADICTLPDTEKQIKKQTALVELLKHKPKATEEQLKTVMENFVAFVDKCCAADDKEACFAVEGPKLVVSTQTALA
Excerpt: The interaction of [4]CF3SO3 and [9]CF3SO3 with bovine serum albumin (BSA) as a model protein was also explored. The addition of the metal complex to the protein in pH buffer solution (pH 7.0 buffer; NaCl 0.1 M, NaCac 0.01 M) produced a quenching of the intrinsic fluorescence emission of the latter. A data fit, according to the Stern–Volmer equation,[11] provided quenching constants (KSV) values equal to ca. 3.4 × 10^4 for both systems, indicative that a binding event occurs (Figure S1).[32] […] More precisely, the binding constant (10^6) appears to be high enough to ensure adduct formation but also weak enough to release the complex once the biotarget is reached; this is assumed to be the optimal condition for BSA-driven transport and diffusion of a drug.[34]
Ethidium bromide (EB, ≥98.0%), bovine serum albumin (BSA, lyophilized powder, crystallized, ≥98.0%), and natural double-stranded DNA from calf thymus (DNA, lyophilized powder, Na^+ salt in the form of fibers) were purchased from Merck, while anhydrous guanosine 5′-monophosphate disodium salt (Na2[GMP], >98.0%) was purchased from TCI Chemicals. Prior to use, DNA was sonicated to ca. 500 base pair length (MSE-Sonyprep sonicator, 7 cycles of 10 s sonication + 20 s pause at an amplitude of 14 μm, solution kept in ice bath—the final length was checked by agarose gel electrophoresis tests on the sample using a 100 bp DNA ladder) to produce stock solutions in water (ca. 2 mM). Stock solutions of EB and BSA were prepared by weighing directly in the buffer (NaCl 0.1 M, NaCac 0.01M, pH 7.0—NaCac is sodium cacodylate). […] Molar concentrations of solutions of EB (CEB), BSA (CBSA), and DNA (CDNA) were determined by absorbance measurements (εEB^480 nm = 5700 M^–1 cm^–1; εBSA^278 nm = 44000 M^–1 cm^–1; εDNA^260 nm = 13200 M^–1 cm^–1 for a concentration expressed in base pairs). […] In EB/DNA exchange experiments, EB was added to DNA until the fluorescence emission at λex = 520 nm/λem = 595 nm (diagnostic wavelengths for the DNA-intercalated EB only) started to reach the plateau (CEB = 5.60 × 10^–5 M, CDNA = 1.15 × 10^–4 M). […] The total maximum amount of DMSO was checked (<3%) as well as the metal complex absorbance at the set wavelengths (A < 0.05 to ensure negligible inner filter effects). Note that a blank test was carried out by adding DMSO to the EB/DNA mixture, in order to quantify fluorescence changes due only to dilution/solvent effects. For BSA fluorescence titrations, the working solution of the metal complex (4.42 × 10^–5 M for [4]CF3SO3, 4.59 × 10^–5 M for [9]CF3SO3, both in the buffer) was added to a 3.34 × 10^–7 M BSA solution in the buffer (λex = 280 nm, λem = 345 nm, dilution from stock such that the DMSO content is negligible). […]

Row | stability (%), total percentage of diiron complexes with a chlorambucil-like group ([1]; D2O/DMSO 1/1 v/v) | Log K (binding constant, compound/BSA) [3] | Stern–Volmer quenching constant (KSV) [3] | stability (%), residual percent of complex ([1]; D2O/DMSO 2/1 v/v) | Substance | interaction with natural DNA (EB displacement) [2]
1 | 88 ^b % | 6.5 ± 0.1 | ca. 3.4 × 10^4 |  | [Fe2Cp2(CO)(μ-CO){μ-η^1:η^3-Cγ(3-C6H4NHC(=O)(CH2)3C6H4N(CH2CH2Cl)2)CβHCαNMe2}]CF3SO3 [[9]CF3SO3] | interact weakly with natural DNA
2 |  | 5.9 ± 0.1 | ca. 3.4 × 10^4 | 59% | [Fe2Cp2(CO)(μ-CO){μ-η^1:η^3-Cγ(3-C6H4OC(=O)C6H4OC(=O)Me)CβHCαNMe(Xyl)}]CF3SO3 [[4]CF3SO3] | interact weakly with natural DNA
